Test results taken from US10273226B2, “Pyrazolyl-heteroarylamides as pesticides” (Bayer Animal Health GmbH, priority 2014, dated 2019).

Each compound was assayed on Lucilia cuprina (assay: Lucilia cuprina test). Details: application rate 100 ppm; L1 larvae; after 2 days.
Format: in vivo
Experimental: (§1) Solvent: dimethyl sulphoxide
To produce an appropriate active ingredient formulation, 10 mg of active ingredient are mixed with 0.5 ml of dimethyl sulphoxide, and the concentrate is diluted with water to the desired concentration.
About 20 L1 larvae of the Australian sheep blowfly (Lucilia cuprina) are transferred into a test vessel containing minced horsemeat and the active ingredient preparation of the desired concentration.
After 2 days, the kill in % is determined. 100% means that all the larvae have been killed and 0% means that none of the larvae have been killed.
In the case of `COc1ccc(C(=O)Nc2cc(-c3cnn(-c4c(C(F)(F)F)c(C(F)(F)C(F)(F)F)nn4C)c3)ccc2F)cc1F` [Example 1-095], the “efficacy (kill in %)” value is reported as 100%. For `Cn1nc(C(F)(F)C(F)(F)F)c(C(F)(F)F)c1-n1cc(-c2ccc(F)c(NC(=O)C(C)(C)CF)c2)cn1` [Example 1-046], the “efficacy (kill in %)” value was 100%. With `CCC(C)C(=O)Nc1cc(-c2cnn(-c3c(C(F)(F)F)c(C(F)(F)C(F)(F)F)nn3C)c2)ccc1F` (racemic) [Example 1-052] the “efficacy (kill in %)” value was 100%. For `CN(C)c1ccc(C(=O)Nc2cc(-c3cnn(-c4c(C(F)(F)F)c(C(F)(F)C(F)(F)F)nn4C)c3)ccc2F)cc1` [Example 1-054], the “efficacy (kill in %)” value was 100%. For `Cc1occc1C(=O)Nc1cc(-c2cnn(-c3c(C(F)(F)F)c(C(F)(F)C(F)(F)F)nn3C)c2)ccc1F` [Example 1-067], the “efficacy (kill in %)” value was 100%.

Each compound was assayed on Ctenocephalides felis (assay: Ctenocephalides felis in vitro contact test with adult cat fleas). Details: application rate 5 μg/cm^2 (500 g/ha); after 48 h; fleas dead or moribund.
Format: in vivo
Experimental: Ctenocephalides felis—In Vitro Contact Tests with Adult Cat Fleas
(§2) For the coating of the test tubes, 9 mg of active ingredient are first dissolved in 1 ml of acetone p.a. and then diluted to the desired concentration with acetone p.a. 250 μl of the solution are distributed homogeneously on the inner walls and base of a 25 ml test tube by turning and rocking on an orbital shaker (rocking rotation at 30 rpm for 2 h). With 900 ppm active ingredient solution and internal surface 44.7 cm^2, given homogeneous distribution, an area-based dose of 5 μg/cm^2 is achieved.
After the solvent has evaporated off, the tubes are populated with 5-10 adult cat fleas (Ctenocephalides felis), sealed with a perforated plastic lid and incubated in a horizontal position at room temperature and ambient humidity. After 48 h, efficacy is determined. To this end, the test tubes are stood upright and the fleas are knocked to the base of the tube. Fleas which remain motionless at the base or move in an uncoordinated manner are considered to be dead or moribund.
100% efficacy means that all the fleas were dead or moribund. 0% efficacy means that no fleas were harmed.
`COc1ccc(C(=O)Nc2cc(-c3cnn(-c4c(C(F)(F)F)c(C(F)(F)C(F)(F)F)nn4C)c3)ccc2F)cc1F` [Example 1-095] gave an efficacy of 100%.

The compounds below were run on Boophilus microplus (assay: Boophilus microplus injection test). Details: application rate 20 μg/animal; injection into abdomen; assessed after 7 days.
Format: in vivo
Experimental: Boophilus microplus—Injection Test
as §1
To produce an appropriate active ingredient formulation, 10 mg of active ingredient are mixed with 0.5 ml of solvent and the concentrate is diluted with solvent to the desired concentration.
1 μl of the active ingredient solution is injected into the abdomen of 5 engorged adult female cattle ticks (Boophilus microplus). The animals are transferred into dishes and kept in a climate-controlled room.
Efficacy is assessed after 7 days by laying of fertile eggs. Eggs which are not visibly fertile are stored in a climate-controlled cabinet until the larvae hatch after about 42 days. An efficacy of 100% means that none of the ticks has laid any fertile eggs; 0% means that all the eggs are fertile.
With `COc1ccc(C(=O)Nc2cc(-c3cnn(-c4c(C(F)(F)F)c(C(F)(F)C(F)(F)F)nn4C)c3)ccc2F)cc1F` [Example 1-095] the “efficacy (laying of fertile eggs)” value was 100%. `Cn1nc(C(F)(F)C(F)(F)F)c(C(F)(F)F)c1-n1cc(-c2ccc(F)c(NC(=O)C(C)(C)CF)c2)cn1` [Example 1-046] was tested, and the “efficacy (laying of fertile eggs)” value was 100%. In the case of `CCC(C)C(=O)Nc1cc(-c2cnn(-c3c(C(F)(F)F)c(C(F)(F)C(F)(F)F)nn3C)c2)ccc1F` (racemic) [Example 1-052], the “efficacy (laying of fertile eggs)” value is reported as 100%. With `CN(C)c1ccc(C(=O)Nc2cc(-c3cnn(-c4c(C(F)(F)F)c(C(F)(F)C(F)(F)F)nn4C)c3)ccc2F)cc1` [Example 1-054] the “efficacy (laying of fertile eggs)” value was 100%. `Cc1occc1C(=O)Nc1cc(-c2cnn(-c3c(C(F)(F)F)c(C(F)(F)C(F)(F)F)nn3C)c2)ccc1F` [Example 1-067] was tested, and the “efficacy (laying of fertile eggs)” value was 100%.

Each compound was assayed on Rhipicephalus sanguineus (assay: Rhipicephalus sanguineus in vitro contact test with adult brown dog ticks). Details: application rate 5 μg/cm^2 (500 g/ha); after 48 h; ticks dead or moribund.
Format: in vivo
Experimental: Rhipicephalus sanguineus—In Vitro Contact Tests with Adult Brown Dog Ticks
as §2
After the solvent has evaporated off, the tubes are populated with 5-10 adult dog ticks (Rhipicephalus sanguineus), sealed with a perforated plastic lid and incubated in a horizontal position in the dark at room temperature and ambient humidity. After 48 h, efficacy is determined. To this end, the ticks are knocked to the floor of the tube and incubated on a hotplate at 45-50° C. for not more than 5 min. Ticks which remain motionless on the floor or move in such an uncoordinated manner that they are unable to deliberately avoid the heat by climbing upwards are considered to be dead or moribund.
An efficacy of 100% means that all the ticks were dead or moribund. 0% efficacy means that none of the ticks had been harmed.
Compound `COc1ccc(C(=O)Nc2cc(-c3cnn(-c4c(C(F)(F)F)c(C(F)(F)C(F)(F)F)nn4C)c3)ccc2F)cc1F` [Example 1-095] has an efficacy of 100%. Compound `CN(C)c1ccc(C(=O)Nc2cc(-c3cnn(-c4c(C(F)(F)F)c(C(F)(F)C(F)(F)F)nn4C)c3)ccc2F)cc1` [Example 1-054] has an efficacy of 100%.

What follows are compounds tested on Ctenocephalides felis (assay: Ctenocephalides felis oral test). Details: application rate 100 ppm in citrated cattle blood; after 2 days.
Format: in vivo
Experimental: Ctenocephalides felis—Oral Test
as §1
For the purpose of producing an appropriate active ingredient formulation, 10 mg of active ingredient are mixed with 0.5 ml of dimethyl sulphoxide. Dilution with citrated cattle blood gives the desired concentration.
About 20 unfed adult cat fleas (Ctenocephalides felis) are placed into a chamber which is closed at the top and bottom with gauze. A metal cylinder whose bottom end is closed with parafilm is placed onto the chamber. The cylinder contains the blood/active ingredient preparation, which can be imbibed by the fleas through the parafilm membrane.
After 2 days, the kill in % is determined. 100% means that all of the fleas have been killed; 0% means that none of the fleas have been killed.
`COc1ccc(C(=O)Nc2cc(-c3cnn(-c4c(C(F)(F)F)c(C(F)(F)C(F)(F)F)nn4C)c3)ccc2F)cc1F` [Example 1-095] was tested, and the “efficacy (kill in %)” value was 100%. `CCC(C)C(=O)Nc1cc(-c2cnn(-c3c(C(F)(F)F)c(C(F)(F)C(F)(F)F)nn3C)c2)ccc1F` (racemic) [Example 1-052] was tested, and the “efficacy (kill in %)” value was 90%. With `Cc1occc1C(=O)Nc1cc(-c2cnn(-c3c(C(F)(F)F)c(C(F)(F)C(F)(F)F)nn3C)c2)ccc1F` [Example 1-067] the “efficacy (kill in %)” value was 100%.

Each compound was assayed on Spodoptera frugiperda (assay: Spodoptera frugiperda spray test). Details: application rate 100 g/ha; caterpillars; after 7 days.
Format: in vivo
Experimental: Spodoptera frugiperda—Spray Test
(§3) To produce an appropriate active ingredient formulation, 1 part by weight of active ingredient is dissolved using the specified parts by weight of solvent and made up with water containing an emulsifier concentration of 1000 ppm until the desired concentration is attained. To produce further test concentrations, the preparation is diluted with emulsifier-containing water.
Leaf discs of maize (Zea mays) are sprayed with an active ingredient formulation of the desired concentration and, after drying, populated with caterpillars of the armyworm (Spodoptera frugiperda).
After 7 days, efficacy in % is determined. 100% means that all the caterpillars have been killed; 0% means that no caterpillars have been killed.
Compound `COc1ccc(C(=O)Nc2cc(-c3cnn(-c4c(C(F)(F)F)c(C(F)(F)C(F)(F)F)nn4C)c3)ccc2F)cc1F` [Example 1-095] has an efficacy of 100%. `CCC(C)C(=O)Nc1cc(-c2cnn(-c3c(C(F)(F)F)c(C(F)(F)C(F)(F)F)nn3C)c2)ccc1F` (racemic) [Example 1-052] gave an efficacy of 100%. `CN(C)c1ccc(C(=O)Nc2cc(-c3cnn(-c4c(C(F)(F)F)c(C(F)(F)C(F)(F)F)nn4C)c3)ccc2F)cc1` [Example 1-054] gave an efficacy of 100%. `Cc1occc1C(=O)Nc1cc(-c2cnn(-c3c(C(F)(F)F)c(C(F)(F)C(F)(F)F)nn3C)c2)ccc1F` [Example 1-067] gave an efficacy of 100%.

Each compound was assayed on Tetranychus urticae (assay: Tetranychus urticae spray test, OP-resistant). Details: application rate 100 g/ha; after 6 days.
Format: in vivo
Experimental: Tetranychus urticae—Spray Test, OP-Resistant
as §3
Discs of bean leaves (Phaseolus vulgaris) infested by all stages of the greenhouse red spider mite (Tetranychus urticae) are sprayed with an active ingredient formulation of the desired concentration.
After 6 days, efficacy in % is determined. 100% means that all the spider mites have been killed; 0% means that none of the spider mites have been killed.
`COc1ccc(C(=O)Nc2cc(-c3cnn(-c4c(C(F)(F)F)c(C(F)(F)C(F)(F)F)nn4C)c3)ccc2F)cc1F` [Example 1-095] was tested, and the efficacy was 100%. `Cn1nc(C(F)(F)C(F)(F)F)c(C(F)(F)F)c1-n1cc(-c2ccc(F)c(NC(=O)C(C)(C)CF)c2)cn1` [Example 1-046] was tested, and the efficacy was 100%. `CCC(C)C(=O)Nc1cc(-c2cnn(-c3c(C(F)(F)F)c(C(F)(F)C(F)(F)F)nn3C)c2)ccc1F` (racemic) [Example 1-052] was tested, and the efficacy was 100%. `CN(C)c1ccc(C(=O)Nc2cc(-c3cnn(-c4c(C(F)(F)F)c(C(F)(F)C(F)(F)F)nn4C)c3)ccc2F)cc1` [Example 1-054] showed an efficacy of 100%. In the case of `Cc1occc1C(=O)Nc1cc(-c2cnn(-c3c(C(F)(F)F)c(C(F)(F)C(F)(F)F)nn3C)c2)ccc1F` [Example 1-067], the efficacy is reported as 100%.

What follows are compounds tested on Phaedon cochleariae (assay: Phaedon cochleariae spray test). Details: application rate 100 g/ha; larvae; after 7 days.
Format: in vivo
Experimental: Phaedon cochleariae—Spray Test
as §3
Discs of Chinese cabbage leaves (Brassica pekinensis) are sprayed with an active ingredient formulation of the desired concentration and, after drying, populated with larvae of the mustard beetle (Phaedon cochleariae).
After 7 days, efficacy in % is determined. 100% means that all the beetle larvae have been killed; 0% means that no beetle larvae have been killed.
`COc1ccc(C(=O)Nc2cc(-c3cnn(-c4c(C(F)(F)F)c(C(F)(F)C(F)(F)F)nn4C)c3)ccc2F)cc1F` [Example 1-095] showed an efficacy of 100%. Compound `CN(C)c1ccc(C(=O)Nc2cc(-c3cnn(-c4c(C(F)(F)F)c(C(F)(F)C(F)(F)F)nn4C)c3)ccc2F)cc1` [Example 1-054] has an efficacy of 100%. With `Cc1occc1C(=O)Nc1cc(-c2cnn(-c3c(C(F)(F)F)c(C(F)(F)C(F)(F)F)nn3C)c2)ccc1F` [Example 1-067] the efficacy was 100%.
